Patent publication US20230085307A1, “PYRIDAZINONE COMPOUND AND HERBICIDE” (NISSAN CHEMICAL CORPORATION, priority 2019, published 2023)

Columns and labels:
[1] = tested on: barnyard grass; assay: Test Example 4: herbicidal effect by soil treatment (Table 19, symbol H); assay type: in vivo, barnyard grass (Echinochloa crus-galli); conditions: amount of applied herbicide 320 g/ha
Outline: (§1)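 Emulsion of test compound, water-diluted to predetermined amount, sprayed on soil after sowing (seed depth ~1.5 cm, sterilized diluvial soil). Greenhouse, 25–30° C. Effect graded at three weeks post-spray.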

[2] = tested on: oval-leafed pondweed; assay: Test Example 1: herbicidal activity, application before weed generation under submerged conditions (Table 16, symbol C); assay type: in vivo, oval-leafed pondweed (Monochoria vaginalis); conditions: amount of applied herbicide 320 g/ha
Outline: (§2)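 Alluvial soil was flooded to 4 cm depth, weed seeds were sown mixed and 2.5-leaf rice seedlings were transplanted. On sowing day, the compound's emulsion, diluted in water to a set dose, was applied to the water surface. Plants grew at 25–30 °C and were scored 0–5 after three weeks.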

[3] = tested on: Japanese bulrush; assay: Test Example 1: herbicidal activity, application before weed generation under submerged conditions (Table 16, symbol B); assay type: in vivo, Japanese bulrush (Schoenoplectus juncoides); conditions: amount of applied herbicide 320 g/ha
Outline: as §2

[4] = tested on: green foxtail; assay: Test Example 5: herbicidal effect by foliage application, plastic box (Table 20, symbol G); assay type: in vivo, green foxtail (Setaria viridis); conditions: amount of applied herbicide 320 g/ha; foliage application after 14-day growth; evaluated three weeks after application
Outline: (§3)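 Post-emergence foliar test in sterilized diluvial soil. Compound applied as water-diluted emulsion at a predetermined rate to 14-day-old plants; evaluation at three weeks.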

[5] = tested on: windgrass; assay: Test Example 5: herbicidal effect by foliage application, plastic box (Table 20, symbol L); assay type: in vivo, windgrass (Apera spica-venti); conditions: amount of applied herbicide 320 g/ha; foliage application after 14-day growth; evaluated three weeks after application
Outline: as §3

[6] = tested on: windgrass; assay: Test Example 4: herbicidal effect by soil treatment (Table 19, symbol L); assay type: in vivo, windgrass (Apera spica-venti); conditions: amount of applied herbicide 320 g/ha
Outline: as §1

[7] = tested on: rice flat sedge; assay: Test Example 3: herbicidal effect by foliage application, Wagner pot (Table 18, symbol E); assay type: in vivo, rice flat sedge (Cyperus iria); conditions: 320 g/ha
Outline: (§4)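 Plants were sown in alluvial soil held under 0.1–0.5 cm standing water and grown 14 days in a greenhouse at 25–30 °C. An emulsifiable formulation, water-diluted to the set dose, was then sprayed onto the foliage, and effects were scored three weeks later using previously defined criteria.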

[8] = tested on: late watergrass; assay: Test Example 1: herbicidal activity, application before weed generation under submerged conditions (Table 16, symbol A); assay type: in vivo, late watergrass (Echinochloa oryzicola); conditions: amount of applied herbicide 320 g/ha
Outline: as §2

[9] = tested on: velvetleaf; assay: Test Example 5: herbicidal effect by foliage application, plastic box (Table 20, symbol M); assay type: in vivo, velvetleaf (Abutilon theophrasti); conditions: amount of applied herbicide 320 g/ha; foliage application after 14-day growth; evaluated three weeks after application
Outline: as §3

[10] = tested on: wild oat; assay: Test Example 4: herbicidal effect by soil treatment (Table 19, symbol I); assay type: in vivo, wild oat (Avena fatua); conditions: amount of applied herbicide 320 g/ha
Outline: as §1

[11] = tested on: Italian ryegrass; assay: Test Example 5: herbicidal effect by foliage application, plastic box (Table 20, symbol K); assay type: in vivo, Italian ryegrass (Lolium multiflorum); conditions: amount of applied herbicide 320 g/ha; foliage application after 14-day growth; evaluated three weeks after application
Outline: as §3

[12] = tested on: barnyard grass; assay: Test Example 5: herbicidal effect by foliage application, plastic box (Table 20, symbol H); assay type: in vivo, barnyard grass (Echinochloa crus-galli); conditions: amount of applied herbicide 320 g/ha; foliage application after 14-day growth; evaluated three weeks after application
Outline: as §3

[13] = tested on: southern crabgrass; assay: Test Example 4: herbicidal effect by soil treatment (Table 19, symbol F); assay type: in vivo, southern crabgrass (Digitaria ciliaris); conditions: amount of applied herbicide 320 g/ha
Outline: as §1

[14] = tested on: blackgrass; assay: Test Example 5: herbicidal effect by foliage application, plastic box (Table 20, symbol J); assay type: in vivo, blackgrass (Alopecurus myosuroides); conditions: amount of applied herbicide 320 g/ha; foliage application after 14-day growth; evaluated three weeks after application
Outline: as §3

[15] = tested on: southern crabgrass; assay: Test Example 5: herbicidal effect by foliage application, plastic box (Table 20, symbol F); assay type: in vivo, southern crabgrass (Digitaria ciliaris); conditions: amount of applied herbicide 320 g/ha; foliage application after 14-day growth; evaluated three weeks after application
Outline: as §3

[16] = tested on: lambsquarters; assay: Test Example 4: herbicidal effect by soil treatment (Table 19, symbol O); assay type: in vivo, lambsquarters (Chenopodium album); conditions: amount of applied herbicide 320 g/ha
Outline: as §1

[17] = tested on: velvetleaf; assay: Test Example 4: herbicidal effect by soil treatment (Table 19, symbol M); assay type: in vivo, velvetleaf (Abutilon theophrasti); conditions: amount of applied herbicide 320 g/ha
Outline: as §1

[18] = tested on: wild oat; assay: Test Example 5: herbicidal effect by foliage application, plastic box (Table 20, symbol I); assay type: in vivo, wild oat (Avena fatua); conditions: amount of applied herbicide 320 g/ha; foliage application after 14-day growth; evaluated three weeks after application
Outline: as §3

[19] = tested on: green foxtail; assay: Test Example 4: herbicidal effect by soil treatment (Table 19, symbol G); assay type: in vivo, green foxtail (Setaria viridis); conditions: amount of applied herbicide 320 g/ha
Outline: as §1

[20] = tested on: redroot pigweed; assay: Test Example 5: herbicidal effect by foliage application, plastic box (Table 20, symbol N); assay type: in vivo, redroot pigweed (Amaranthus retroflexus); conditions: amount of applied herbicide 320 g/ha; foliage application after 14-day growth; evaluated three weeks after application
Outline: as §3

[21] = tested on: Italian ryegrass; assay: Test Example 4: herbicidal effect by soil treatment (Table 19, symbol K); assay type: in vivo, Italian ryegrass (Lolium multiflorum); conditions: amount of applied herbicide 320 g/ha
Outline: as §1

[22] = tested on: chickweed; assay: Test Example 5: herbicidal effect by foliage application, plastic box (Table 20, symbol P); assay type: in vivo, common chickweed (Stellaria media); conditions: amount of applied herbicide 320 g/ha; foliage application after 14-day growth; evaluated three weeks after application
Outline: as §3

[23] = tested on: redroot pigweed; assay: Test Example 4: herbicidal effect by soil treatment (Table 19, symbol N); assay type: in vivo, redroot pigweed (Amaranthus retroflexus); conditions: amount of applied herbicide 320 g/ha
Outline: as §1

[24] = tested on: barnyard grass; assay: Test Example 3: herbicidal effect by foliage application, Wagner pot (Table 18, symbol H); assay type: in vivo, barnyard grass (Echinochloa crus-galli); conditions: 320 g/ha
Outline: as §4

[25] = tested on: persian speedwell; assay: Test Example 5: herbicidal effect by foliage application, plastic box (Table 20, symbol R); assay type: in vivo, Persian speedwell (Veronica persica); conditions: amount of applied herbicide 320 g/ha; foliage application after 14-day growth; evaluated three weeks after application
Outline: as §3

[26] = tested on: blackgrass; assay: Test Example 4: herbicidal effect by soil treatment (Table 19, symbol J); assay type: in vivo, blackgrass (Alopecurus myosuroides); conditions: amount of applied herbicide 320 g/ha
Outline: as §1

[27] = tested on: chickweed; assay: Test Example 4: herbicidal effect by soil treatment (Table 19, symbol P); assay type: in vivo, common chickweed (Stellaria media); conditions: amount of applied herbicide 320 g/ha
Outline: as §1

[28] = tested on: Chinese sprangletop; assay: Test Example 3: herbicidal effect by foliage application, Wagner pot (Table 18, symbol D); assay type: in vivo, chinese sprangletop (Leptochloa chinensis); conditions: 320 g/ha
Outline: as §4

[29] = tested on: lambsquarters; assay: Test Example 5: herbicidal effect by foliage application, plastic box (Table 20, symbol O); assay type: in vivo, lambsquarters (Chenopodium album); conditions: amount of applied herbicide 320 g/ha; foliage application after 14-day growth; evaluated three weeks after application
Outline: as §3

[30] = tested on: false cleavers; assay: Test Example 4: herbicidal effect by soil treatment (Table 19, symbol Q); assay type: in vivo, false cleavers (Galium spurium); conditions: amount of applied herbicide 320 g/ha
Outline: as §1

## CCCC(=O)Oc1c(C)nn(C)c(=O)c1-c1c(-c2ccc(F)cc2OCC)sc2cc(F)c(F)cc12 [5-032]
[1]
  H: barnyard grass, herbicidal effect grade: 0 (Herbicidal rate of 5% or less (almost no effect))
[2]
  Herbicidal effect, C: oval-leafed pondweed: 0 (Herbicidal rate of 5% or less (almost no effect))
[3]
  Herbicidal effect, B: Japanese bulrush: 1 (Herbicidal rate of 5% or more and less than 20%)
[4]
  Herbicidal effect by foliage application, G: green foxtail: 2 (Herbicidal rate of 20% or more and less than 40%)
[5]
  Herbicidal effect by foliage application, L: windgrass: 4 (Herbicidal rate of 70% or more and less than 90%)
[6]
  L: windgrass, herbicidal effect grade: 5 (Herbicidal rate of 90% or more (almost completely withered))
[7]
  herbicidal effect on rice flat sedge (E): 0 (Herbicidal rate of 5% or less (almost no effect))
[8]
  Herbicidal effect, A: late watergrass: 4 (Herbicidal rate of 70% or more and less than 90%)
[9]
  Herbicidal effect by foliage application, M: velvetleaf: 4 (Herbicidal rate of 70% or more and less than 90%)
[10]
  I: wild oat, herbicidal effect grade: 0 (Herbicidal rate of 5% or less (almost no effect))
[11]
  Herbicidal effect by foliage application, K: Italian ryegrass: 0 (Herbicidal rate of 5% or less (almost no effect))
[12]
  Herbicidal effect by foliage application, H: barnyard grass: 4 (Herbicidal rate of 70% or more and less than 90%)
[13]
  F: southern crabgrass, herbicidal effect grade: 0 (Herbicidal rate of 5% or less (almost no effect))
[14]
  Herbicidal effect by foliage application, J: blackgrass: 3 (Herbicidal rate of 40% or more and less than 70%)
[15]
  Herbicidal effect by foliage application, F: southern crabgrass: 0 (Herbicidal rate of 5% or less (almost no effect))
[16]
  O: lambsquarters, herbicidal effect grade: 4 (Herbicidal rate of 70% or more and less than 90%)
[17]
  M: velvetleaf, herbicidal effect grade: 1 (Herbicidal rate of 5% or more and less than 20%)
[18]
  Herbicidal effect by foliage application, I: wild oat: 0 (Herbicidal rate of 5% or less (almost no effect))
[19]
  G: green foxtail, herbicidal effect grade: 3 (Herbicidal rate of 40% or more and less than 70%)
[20]
  Herbicidal effect by foliage application, N: redroot pigweed: 3 (Herbicidal rate of 40% or more and less than 70%)
[21]
  K: Italian ryegrass, herbicidal effect grade: 0 (Herbicidal rate of 5% or less (almost no effect))
[22]
  Herbicidal effect by foliage application, P: chickweed: 5 (Herbicidal rate of 90% or more (almost completely withered))
[23]
  N: redroot pigweed, herbicidal effect grade: 4 (Herbicidal rate of 70% or more and less than 90%)
[24]
  herbicidal effect on barnyard grass (H): 4 (Herbicidal rate of 70% or more and less than 90%)
[25]
  Herbicidal effect by foliage application, R: persian speedwell: 3 (Herbicidal rate of 40% or more and less than 70%)
[26]
  J: blackgrass, herbicidal effect grade: 3 (Herbicidal rate of 40% or more and less than 70%)
[27]
  P: chickweed, herbicidal effect grade: 0 (Herbicidal rate of 5% or less (almost no effect))
[28]
  herbicidal effect on Chinese sprangletop (D): 3 (Herbicidal rate of 40% or more and less than 70%)
[29]
  Herbicidal effect by foliage application, O: lambsquarters: 3 (Herbicidal rate of 40% or more and less than 70%)
[30]
  Q: false cleavers, herbicidal effect grade: 0 (Herbicidal rate of 5% or less (almost no effect))
